Source: patent publication US20100041662A1, “Heterocyclic compounds as antiinflammatory agents” (priority 2006, published 2010)

Tests used:
[1] = test system: Phospho-PKB in U87MG cells; assay: Detection of phospho-PKB in U87MG cells by ELISA; type: cell-based; settings: Homo sapiens, U-87 MG; assay not given; follows the PI3K/DNA-PK/phospho-PKB U87MG methods
Procedure: U87MG cells (human glioblastoma, ATCC No. HTB-14) are trypsinized, counted in a CASY cell counter (Schärffe systems, Göttingen, Germany), diluted in fresh complete DMEM high glucose medium to load, per well, 150 μL cell suspension containing 4×10^4 cells, and test plates incubated for 18 hours. In parallel, 50 μL of coating antibody, at the desired concentration in PBS/O is loaded in each well of the ELISA plates, and plates are kept for 2 hours at room temperature. This ELISA assays is performed in black flat-bottom 96-well plates (Microtest™, Falcon Becton-Dickinson, Ref.: 353941) sealed with Plate Sealers (Costar-Corning, Ref: 3095). Medium in plates is discarded and replaced by complete DMEM high glucose medium containing either 0.1% DMSO or 0.1% inhibitor at titers (7) between […] in DMSO. After 30 minutes of contact, the medium is quickly removed by aspiration, plates are then placed on ice and immediately cells lyzed with 70 μL of Lysis buffer. In parallel, the 96 wells plates prepared with the coating antibody (1/250 diluted (in PBS/O) Anti-Akt1 C-20, goat, Santa-Cruz-1618, Santa Cruz Biotechnology, Inc., Santa Cruz, Calif., USA) are washed 3 times for 1 minute with PBS/O containing 0.05% Tween 20 and 0.1% Top-Blocks (derivative of gelatine that blocks unspecific binding sites on surfaces; Sigma-Aldrich, Fluka, Buchs, Switzerland, Ref.: 37766), and remaining protein binding sites blocked to prevent non-specific interactions with 200 μL of PBS containing 3% Top Block®, for 2 hours at room temperature. Well content is replaced with 50 μL of samples from treated cells, and plates are incubated for 3 hours at 4° C. The ELISA assays are always done in parallel with the following controls, in 6 replicates: U87MG (untreated control) or Lysis buffer alone (LB). […] The luminescence is read immediately on a Top-Count NXT (Packard Bioscience) luminometer.

[2] = test system: dimethylnitrosamine induced liver fibrosis; settings: cited from earlier work
[3] = given therapeutically to rat, 3 weeks treatment

| SMILES | IC50 [1] [µM] | side effects ([2]; during the 3 weeks treatment) | inhibited extracellular matrix deposition [2, 3] [%] | prevented death rate [2, 3] [%] |
| --- | --- | --- | --- | --- |
| OC1CCC(Nc2ccc3ncc(-c4ccc(-n5cccn5)cc4)n3n2)CC1 (stereo not drawn) [Example 1.5, 4-[3-(4-Pyrazol-1-yl-phenyl)-imidazo[1,2-b]pyridazin-6-ylamino]-cyclohexanol] | 0.106 | – | – | – |
| OC1CCC(Nc2ccc3ncc(-c4ccc(-n5cncn5)cc4)n3n2)CC1 (stereo not drawn) [Example 1.8, 4-[3-(4-[1,2,4]Triazol-1-yl-phenyl)-imidazo[1,2-b]pyridazin-6-ylamino]-cyclohexanol] | 0.666 | – | – | – |
| OCC1CCC(Nc2ccc3ncc(-c4ccc(-n5cccn5)cc4)n3n2)CC1 (stereo not drawn) [Example 1.9, {4-[3-(4-Pyrazol-1-yl-phenyl)-imidazo[1,2-b]pyridazin-6-ylamino]-cyclohexyl}-methanol] | 0.753 | – | – | – |
| c1ccc(-c2cc(-c3cn[nH]c3-c3ccccn3)ccn2)cc1 [GW6604] | – | no obvious side effects | 60 | 40 |
